{"source": "patent US20160243142A1", "about": "“AVICIN D FOR TREATMENT OF MANTLE CELL LYMPHOMA” (Research Development Foundation, priority 2015, published 2016)", "key": {"[1]": {"details": "approved dose; alternative treatment 1.9 months; cited from earlier work"}, "[2]": {"test": "Toxicity / body weight in Mino xenograft bearing NODscid mice", "type": "in vivo", "details": "for tolerability of dosing protocols: 0.5, 1.0 and 1.0-2.0 mg/kg s.c. daily; for animals removed from the study due to drug toxicity / treatment related deaths (TR): Group 5: escalating 1.0-2.0 mg/kg s.c., N = 10", "experimental": "(§1) Animals were treated according to Table 3 below. Animals were dosed in the opposite flank opposing the tumors at 10 mL/kg. Daily clinical observations were made and body weights and tumor measurements were performed thrice weekly. Animals were maintained on study until their tumor burden reached the study endpoint of 2000 mm^3. Animals were euthanized at the study endpoint with terminal cardiocentesis performed for serum collection and plasma preparation in K2EDTA. Tumors were excised and fixed in 10% formalin.\nNon-treatment related deaths (NTR), non-treatment metastatic related deaths (NTRm), and treatment related deaths (TR) were monitored. Animal body weight was monitored three times weekly throughout the study and mean % body weight loss was calculated and plotted with GraphPad Prism 5.0. Animals displaying >20% body weight loss were to be euthanized and recorded as TRs."}, "[3]": {"test_system": "Mino mantle cell lymphoma xenograft", "test": "Tumor growth delay in Mino mantle cell lymphoma xenograft bearing NODscid mice", "type": "in vivo", "details": "for PR (partial response): N = 10; for Log10 cell kill (750 mm^3): activity threshold 0.7", "excerpt": "80 NOD .CB17 -Prkdcscid/J (NOD scid) (JAX, West Sacramento, Calif.) 4-6 week old female mice were transferred to the in vivo research laboratory in West Sacramento, CA. The mice were ear notched for identification and housed in individually and positively ventilated polycarbonate cages with HEPA filtered air at a density of five mice per cage. Bed-o'cobs® bedding was used and cages were changed every two weeks. The animal room was illuminated entirely with artificial fluorescent lighting, with a controlled 12 h light/dark cycle (7 am to 7 pm light). The normal temperature and relative humidity ranges in the animal rooms were 22±4° C. and 50±15%, respectively. The animal rooms were set to have 15 air exchanges per hour. Filtered tap water, acidified to a pH of 2.8 to 3.1, and LabDiet 5LL4 were provided ad libitum.\nMino Mantle Cell Lymphoma cells (ATCC catalogue #CRL-3000™, Manassas, Va.) were maintained in RPMI 1640 with 2 mM 1-glutamine, 25 mM HEPES, 4.5 g/L D-glucose (Invitrogen, San Diego, Calif.) supplemented with 10% ES cell certified fetal bovine serum (Hyclone, Logan, Utah). The cells were suspended at 1×10^8 cells/ml in serum free media, and 80 mice were subcutaneously injected in the rear right flanks with 10^7 cells in 100 μL. Tumor volumes were monitored with ULTRA-Cal IV digital calipers (Fowler, Newton, Mass.), and 50 animals were tumor size rank matched into five cohorts of 10 animals with mean tumor volumes of approximately 150 mm^3.\nas §1\nAnimals were euthanized when the tumors had reached the 2000 mm^3 study endpoint, and the tumors were harvested, weighed, and placed in 10% formalin. Table 4 summarizes the clinical observation schedule and the body weight and tumor measurement schedule performed.\nTumor volumes were calculated from digital caliper raw data by using the formula: […]\nThe value w (width) was the smaller of two perpendicular tumor axes and the value l (length) was the larger of two perpendicular axes.\nThe tumor growth delay (TGD) method was used to analyze drug treatment effects on time (days) to tumor endpoint (TTE) for Mino tumor response. The tumor endpoint volume for TTE analysis was set at 2000 mm^3 and TTE was defined in days by the formula: […]\nThe value for b was the (y) intercept and m was the slope of the line calculated from a linear regression of log-transformed tumor growth data for each tumor calculated from a minimum of three time points preceding 2000 mm^3 and a minimum of one that surpassed the time point for 2000 mm^3. Treatment initiated when tumors reached approximately 150 mm^3, and animals were drugged according to Table 3. Tumors were monitored until animals were euthanized due to tumors reaching a 2000 mm^3 endpoint, and the study was concluded on day 59 post drug treatment initiation.\nTreatment efficacy was determined by comparing TTE values calculated for each treatment group and by calculating percent tumor growth delay for each treatment group:\nT represented the median TTE in days for a drug treatment group and C represented the median TTE in days for the control group. Statistical significance for median TTE values for treatment group comparisons was determined by the Log-rank test with GraphPad Prism 5.0 software (GraphPad, La Jolla, Calif.). A 95% confidence value was used for two-tailed statistical analyses. Log-rank survival curves were plotted based on survival to 2000 mm3 to visualize the statistical significance of the median TTE values between treatment groups. […]"}, "[4]": {"details": "3.3 mg/kg i.v. days 1 and 8 (Group 2)"}, "[5]": {"details": "Group 1 vs. Group 3: vehicle control vs. 0.5 mg/kg s.c."}, "[6]": {"details": "Group 1 vs. Group 4: vehicle control vs. 1.0 mg/kg s.c."}, "[7]": {"details": "Group 1 vs. Group 5: vehicle control vs. 1.0-2.0 mg/kg s.c."}, "[8]": {"details": "Group 3: 0.5 mg/kg s.c. daily days 1-33"}, "[9]": {"details": "Group 3 vs. Group 4: 0.5 mg/kg vs. 1.0 mg/kg s.c."}, "[10]": {"details": "Group 3 vs. Group 5: 0.5 mg/kg vs. 1.0-2.0 mg/kg s.c."}, "[11]": {"details": "Group 4: 1.0 mg/kg s.c. daily days 1-2, 5-33"}, "[12]": {"details": "Group 4 vs. Group 5: 1.0 mg/kg vs. 1.0-2.0 mg/kg s.c."}, "[13]": {"details": "Group 5: escalating 1.0-2.0 mg/kg s.c. daily days 1-2, 5-33"}}, "note": "Entries after “also recorded” stand apart in the source; their conditions may differ.", "data": [{"smiles": "CO[C@H]1C[C@@H]2CC[C@@H](C)[C@@](O)(O2)C(=O)C(=O)N2CCCC[C@H]2C(=O)O[C@H]([C@H](C)C[C@@H]2CC[C@@H](OC(=O)C(C)(CO)CO)[C@H](OC)C2)CC(=O)[C@H](C)/C=C(\\C)[C@@H](O)[C@@H](OC)C(=O)[C@H](C)C[C@H](C)/C=C/C=C/C=C/1C", "note": "[Torisel, temsirolimus]", "values": [{"measurement": "average time lived without disease getting worse", "setting": "[1]", "result": 4.8, "unit": "months"}]}, {"smiles": "COc1cccc2c1C(=O)c1c(O)c3c(c(O)c1C2=O)C[C@@](O)(C(=O)CO)C[C@@H]3O[C@H]1C[C@H](N)[C@H](O)[C@H](C)O1", "note": "[Adriamycin, doxorubicin, reference compound]", "values": [{"measurement": "day by which animals were removed from study", "setting": "[2]; [4]", "result": "≤ 16", "unit": "days"}, {"measurement": "toxicity of positive control", "setting": "[2]; [4]", "result": "significant body weight loss; also recorded: severe toxicity"}, {"measurement": "toxicity of positive control", "setting": "[2]; 3.3 mg/kg i.v. days 1 and 8 (Group 2), listed as adriamycin", "result": "significant treatment-related body weight loss"}]}, {"smiles": "C=CC(C)(O)CC/C=C(\\CO)C(=O)O[C@@H]1C(C)O[C@@H](O[C@](C)(C=C)CC/C=C(\\CO)C(=O)O[C@H]2C[C@@]3(C(=O)O[C@@H]4OC(CO)[C@@H](O)C(O)C4O[C@@H]4OC(C)[C@H](O[C@@H]5O[C@@H](CO)C(O)[C@@H]5O)C(O[C@@H]5OC(CO)[C@@H](O)C(O)C5O)C4O)C(CC2(C)C)C2=CCC4[C@@]5(C)CC[C@H](O[C@@H]6OC(CO[C@@H]7OC(C)[C@H](O)C(O)C7O[C@@H]7OC[C@@H](O)C(O)C7O)[C@@H](O)C(O)C6NC(C)=O)C(C)(C)C5CC[C@@]4(C)[C@]2(C)C[C@H]3O)C(O)C1O", "note": "(some centres unmarked) [AVD-001]", "values": [{"measurement": "Hazard Ratio", "setting": "[3]; [5]", "result": 3.159}, {"measurement": "Median survival Ratio (control/treated)", "setting": "[3]; [5]", "result": 0.7412}, {"measurement": "Hazard Ratio", "setting": "[3]; [6]", "result": 3.492}, {"measurement": "Median survival Ratio (control/treated)", "setting": "[3]; [6]", "result": 0.6941}, {"measurement": "Hazard Ratio", "setting": "[3]; [7]", "result": 10.36}, {"measurement": "Median survival Ratio (control/treated)", "setting": "[3]; [7]", "result": 0.5675}, {"measurement": "Median Survival (to 2000 mm^3)", "setting": "[3]; Group 3: 0.5 mg/kg s.c.", "result": 29.2, "unit": "days"}, {"measurement": "% TGD (tumor growth delay)", "setting": "[3]; [8]", "result": 34.9, "unit": "%"}, {"measurement": "Median TTE (time to tumor endpoint, 2000 mm^3)", "setting": "[3]; [8]", "result": 29.2, "unit": "days"}, {"measurement": "PR (partial response)", "setting": "[3]; Group 3: 0.5 mg/kg s.c.", "result": 3}, {"measurement": "Log10 cell kill (750 mm^3)", "setting": "[3]; Group 3: 0.5 mg/kg s.c.", "result": 0.57}, {"measurement": "Hazard Ratio", "setting": "[3]; [9]", "result": 1.588}, {"measurement": "Median survival Ratio", "setting": "[3]; [9]", "result": 0.9365}, {"measurement": "Hazard Ratio", "setting": "[3]; [10]", "result": 5.491}, {"measurement": "Median survival Ratio", "setting": "[3]; [10]", "result": 0.7657}, {"measurement": "Median Survival (to 2000 mm^3)", "setting": "[3]; Group 4: 1.0 mg/kg s.c.", "result": 31.18, "unit": "days"}, {"measurement": "% TGD (tumor growth delay)", "setting": "[3]; [11]", "result": 44.1, "unit": "%"}, {"measurement": "Median TTE (time to tumor endpoint, 2000 mm^3)", "setting": "[3]; [11]", "result": 31.2, "unit": "days"}, {"measurement": "PR (partial response)", "setting": "[3]; Group 4: 1.0 mg/kg s.c.", "result": 4}, {"measurement": "Log10 cell kill (750 mm^3)", "setting": "[3]; Group 4: 1.0 mg/kg s.c.", "result": 0.45}, {"measurement": "Hazard Ratio", "setting": "[3]; [12]", "result": 1.674}, {"measurement": "Median survival Ratio", "setting": "[3]; [12]", "result": 0.8177}, {"measurement": "Median Survival (to 2000 mm^3)", "setting": "[3]; Group 5: 1.0-2.0 mg/kg s.c.", "result": 38.14, "unit": "days"}, {"measurement": "PR (partial response)", "setting": "[3]; Group 5: 1.0 to 2.0 mg/kg s.c.", "result": 6}, {"measurement": "Log10 cell kill (750 mm^3)", "setting": "[3]; Group 5: 1.0 to 2.0 mg/kg s.c.", "result": 0.89}, {"measurement": "% TGD (tumor growth delay)", "setting": "[3]; [13]", "result": 76.2, "unit": "%"}, {"measurement": "Median TTE (time to tumor endpoint, 2000 mm^3)", "setting": "[3]; [13]", "result": 38.1, "unit": "days"}, {"measurement": "nadir mean % body weight change", "setting": "[2]; 0.5 mg/kg dose cohort, day 2", "result": "−4.43", "unit": "%"}, {"measurement": "nadir mean % body weight change", "setting": "[2]; 1.0 mg/kg dose cohort, day 3", "result": "−11.82", "unit": "%"}, {"measurement": "tolerability of dosing protocols", "setting": "[2]", "result": "generally well-tolerated"}, {"measurement": "tolerability of dosing protocols", "setting": "[2]; listed as Avicin", "result": "generally well tolerated"}, {"measurement": "body weight loss", "setting": "[2]; Group 3 (0.5 mg/kg s.c.), peaked at day 2", "result": 4, "unit": "%"}, {"measurement": "animals removed from the study due to drug toxicity / treatment related deaths (TR)", "setting": "[2]", "result": "Two"}, {"measurement": "animals removed from the study due to drug toxicity / treatment related deaths (TR)", "setting": "[2]; listed as Avicin", "result": "two and Two"}, {"measurement": "transient body weight loss", "setting": "[2]; Groups 4 and 5 (1.0 and 1.0-2.0 mg/kg s.c.), dosing suspended days 3 and 4", "result": 10, "unit": "%"}, {"measurement": "nadir average % body weight change", "setting": "[2]; escalating dose 1.0-2.0 cohort, day 3", "result": "−10.42", "unit": "%"}, {"measurement": "injection site findings", "setting": "[2]; several Group 3, 4 and 5 mice, s.c.", "result": "irritation and/or bleeding at the injection site"}]}]}
